Experiments:
Assay in all cases: microbe, parasite or virus in culture
Type in all cases: functional
[1] = test system: Acinetobacter baumannii; conditions: ATCC 19606 = CIP 70.34 = JCM 6841, time 48 hrs
Description: Antibiofilm activity against Acinetobacter baumannii ATCC 19606 assessed as inhibition of bacterial metabolism within the biofilm at 8 ug/ml measured after 48 hrs by MTT assay relative to control

[2] = test system: Staphylococcus aureus; conditions: ATCC 25923, time 48 hrs
Description: Antibiofilm activity against Staphylococcus aureus ATCC 25923 assessed as inhibition of bacterial metabolism within the biofilm at 8 ug/ml measured after 48 hrs by MTT assay relative to control

[3] = test system: Acinetobacter baumannii; conditions: ATCC 19606 = CIP 70.34 = JCM 6841, time 48 hrs; remark: listed apart in the source
Description: Antibiofilm activity against Acinetobacter baumannii ATCC 19606 assessed as inhibition of biofilm formation at 8 ug/ml measured after 48 hrs by crystal violet staining based assay relative to control

[4] = test system: Listeria monocytogenes; conditions: ATCC 7644, time 48 hrs
Description: Antibiofilm activity against Listeria monocytogenes ATCC 7644 assessed as inhibition of biofilm formation at 8 ug/ml measured after 48 hrs by crystal violet staining based assay relative to control

[5] = test system: Escherichia coli; conditions: DSM 8579, time 48 hrs
Description: Antibiofilm activity against Escherichia coli DSM 8579 assessed as inhibition of bacterial metabolism within the biofilm at 80 ug/ml measured after 48 hrs by MTT assay relative to control

[6] = test system: Escherichia coli; conditions: DSM 8579, time 48 hrs; remark: listed apart in the source
Description: Antibiofilm activity against Escherichia coli DSM 8579 assessed as inhibition of biofilm formation at 40 ug/ml measured after 48 hrs by crystal violet staining based assay relative to control

[7] = test system: Staphylococcus aureus; conditions: ATCC 25923, time 48 hrs; remark: listed apart in the source
Description: Antibiofilm activity against Staphylococcus aureus ATCC 25923 assessed as inhibition of biofilm formation at 8 ug/ml measured after 48 hrs by crystal violet staining based assay relative to control

[8] = test system: Escherichia coli; conditions: DSM 8579, time 48 hrs; remark: listed apart in the source
Description: Antibiofilm activity against Escherichia coli DSM 8579 assessed as inhibition of biofilm formation at 80 ug/ml measured after 48 hrs by crystal violet staining based assay relative to control

[9] = test system: Listeria monocytogenes; conditions: ATCC 7644, time 48 hrs; remark: listed apart in the source
Description: Antibiofilm activity against Listeria monocytogenes ATCC 7644 assessed as inhibition of bacterial metabolism within the biofilm at 4 ug/ml measured after 48 hrs by MTT assay relative to control

[10] = test system: Pseudomonas aeruginosa; conditions: ATCC 50071, time 48 hrs
Description: Antibiofilm activity against Pseudomonas aeruginosa ATCC 50071 assessed as inhibition of bacterial metabolism within the biofilm at 4 ug/ml measured after 48 hrs by MTT assay relative to control

[11] = test system: Acinetobacter baumannii; conditions: ATCC 19606 = CIP 70.34 = JCM 6841, time 48 hrs; remark: listed apart in the source
Description: Antibiofilm activity against Acinetobacter baumannii ATCC 19606 assessed as inhibition of bacterial metabolism within the biofilm at 4 ug/ml measured after 48 hrs by MTT assay relative to control

[12] = test system: Staphylococcus aureus; conditions: ATCC 25923, time 48 hrs; remark: listed apart in the source
Description: Antibiofilm activity against Staphylococcus aureus ATCC 25923 assessed as inhibition of bacterial metabolism within the biofilm at 4 ug/ml measured after 48 hrs by MTT assay relative to control

[13] = test system: Acinetobacter baumannii; conditions: ATCC 19606 = CIP 70.34 = JCM 6841, time 48 hrs; remark: listed apart in the source
Description: Antibiofilm activity against Acinetobacter baumannii ATCC 19606 assessed as inhibition of biofilm formation at 4 ug/ml measured after 48 hrs by crystal violet staining based assay relative to control

[14] = test system: Pectobacterium carotovorum; conditions: ATCC 15713, time 48 hrs
Description: Antibiofilm activity against Pectobacterium carotovorum ATCC 15713 assessed as inhibition of bacterial metabolism within the biofilm at 4 ug/ml measured after 48 hrs by MTT assay relative to control

[15] = test system: Pectobacterium carotovorum; conditions: ATCC 15713, time 48 hrs; remark: listed apart in the source
Description: Antibiofilm activity against Pectobacterium carotovorum ATCC 15713 assessed as inhibition of biofilm formation at 4 ug/ml measured after 48 hrs by crystal violet staining based assay relative to control

[16] = test system: Listeria monocytogenes; conditions: ATCC 7644, time 48 hrs; remark: listed apart in the source
Description: Antibiofilm activity against Listeria monocytogenes ATCC 7644 assessed as inhibition of bacterial metabolism within the biofilm at 8 ug/ml measured after 48 hrs by MTT assay relative to control

[17] = test system: Pseudomonas aeruginosa; conditions: ATCC 50071, time 48 hrs; remark: listed apart in the source
Description: Antibiofilm activity against Pseudomonas aeruginosa ATCC 50071 assessed as inhibition of biofilm formation at 8 ug/ml measured after 48 hrs by crystal violet staining based assay relative to control

[18] = test system: Escherichia coli; conditions: DSM 8579, time 48 hrs; remark: listed apart in the source
Description: Antibiofilm activity against Escherichia coli DSM 8579 assessed as inhibition of bacterial metabolism within the biofilm at 40 ug/ml measured after 48 hrs by MTT assay relative to control

[19] = test system: Pseudomonas aeruginosa; conditions: ATCC 50071, time 48 hrs; remark: listed apart in the source
Description: Antibiofilm activity against Pseudomonas aeruginosa ATCC 50071 assessed as inhibition of biofilm formation at 4 ug/ml measured after 48 hrs by crystal violet staining based assay relative to control

[20] = test system: Pectobacterium carotovorum; conditions: ATCC 15713, time 48 hrs; remark: listed apart in the source
Description: Antibiofilm activity against Pectobacterium carotovorum ATCC 15713 assessed as inhibition of bacterial metabolism within the biofilm at 8 ug/ml measured after 48 hrs by MTT assay relative to control

[21] = test system: Staphylococcus aureus; conditions: ATCC 25923, time 48 hrs; remark: listed apart in the source
Description: Antibiofilm activity against Staphylococcus aureus ATCC 25923 assessed as inhibition of biofilm formation at 4 ug/ml measured after 48 hrs by crystal violet staining based assay relative to control

[22] = test system: Pseudomonas aeruginosa; conditions: ATCC 50071, time 48 hrs; remark: listed apart in the source
Description: Antibiofilm activity against Pseudomonas aeruginosa ATCC 50071 assessed as inhibition of bacterial metabolism within the biofilm at 8 ug/ml measured after 48 hrs by MTT assay relative to control

[23] = test system: Pectobacterium carotovorum; conditions: ATCC 15713, time 48 hrs; remark: listed apart in the source
Description: Antibiofilm activity against Pectobacterium carotovorum ATCC 15713 assessed as inhibition of biofilm formation at 8 ug/ml measured after 48 hrs by crystal violet staining based assay relative to control

[24] = test system: Listeria monocytogenes; conditions: ATCC 7644, time 48 hrs; remark: listed apart in the source
Description: Antibiofilm activity against Listeria monocytogenes ATCC 7644 assessed as inhibition of biofilm formation at 4 ug/ml measured after 48 hrs by crystal violet staining based assay relative to control

Row | Structure (SMILES) | inhibition at 8 µg/mL [1] [%] | inhibition at 8 µg/mL [2] [%] | inhibition at 8 µg/mL [3] [%] | inhibition at 8 µg/mL [4] [%] | inhibition at 80 µg/mL [5] [%] | inhibition at 40 µg/mL [6] [%] | inhibition at 8 µg/mL [7] [%] | inhibition at 80 µg/mL [8] [%] | inhibition at 4 µg/mL [9] [%] | inhibition at 4 µg/mL [10] [%] | inhibition at 4 µg/mL [11] [%] | inhibition at 4 µg/mL [12] [%] | inhibition at 4 µg/mL [13] [%] | inhibition at 4 µg/mL [14] [%] | inhibition at 4 µg/mL [15] [%] | inhibition at 8 µg/mL [16] [%] | inhibition at 8 µg/mL [17] [%] | inhibition at 40 µg/mL [18] [%] | inhibition at 4 µg/mL [19] [%] | inhibition at 8 µg/mL [20] [%] | also measured
1 | CC(C)c1cc2c(c(O)c1O)C[C@@]1(O)[C@@H](O)CCC(C)(C)[C@@H]1CC2 | 96.7 | 78.2 | 51.7 | 0 | 0 | 0 | 79.7 | 0 | 9.6 | 0 | 0 | 75.8 | 48.6 | 0 | 0 | 13.1 | 65.7 | 0 | 33.4 | 1.5 | inhibition at 4 µg/mL [21]: 39.3%; inhibition at 8 µg/mL [22]: 0%; inhibition at 8 µg/mL [23]: 0%; inhibition at 4 µg/mL [24]: 0%
2 | CC(C)c1cc2c(c(O)c1O)[C@@]13CCCC(C)(C)[C@@H]1C[C@@H]2OC3=O [CARNOSOL] | 49 | 84.8 | 47.2 | 46.7 | 0 | 0 | 100 | 0 | 27.6 | 0 | 7.1 | 68.2 | 43.2 | 35.8 | 49.1 | 40.4 | 88.5 | 0 | 39 | 69.1 | inhibition at 4 µg/mL [21]: 95.9%; inhibition at 8 µg/mL [22]: 5.4%; inhibition at 8 µg/mL [23]: 100%; inhibition at 4 µg/mL [24]: 17.2%
3 | CC(C)c1cc2c(c(O)c1O)[C@@]13CCCC(C)(C)[C@@H]1[C@H](OC3=O)[C@@H]2O [EPIROSMANOL] | 11.1 | 23.6 | 56.9 | 63.4 | 0 | 0 | 81.7 | 11.3 | 24.7 | 0 | 8.9 | 0 | 26.3 | 32.5 | 33.6 | 55.6 | 74.8 | 0 | 70.7 | 56.3 | inhibition at 4 µg/mL [21]: 68.4%; inhibition at 8 µg/mL [22]: 9.2%; inhibition at 8 µg/mL [23]: 53.8%; inhibition at 4 µg/mL [24]: 0%
4 | CO[C@@H]1c2cc(C(C)C)c(O)c(O)c2[C@@]23CCCC(C)(C)[C@@H]2[C@@H]1OC3=O | 38.8 | 34.6 | 21 | 0 | 6.1 | 0 | 91.8 | 0 | 23.6 | 0 | 49.2 | 45.3 | 12.7 | 4.4 | 35.5 | 29.7 | 76.5 | 0 | 55.8 | 5.7 | inhibition at 4 µg/mL [21]: 34.4%; inhibition at 8 µg/mL [22]: 1.5%; inhibition at 8 µg/mL [23]: 67.7%; inhibition at 4 µg/mL [24]: 0%
5 | CCCCCC [HEXANE] | 34.7 | 99.2 | 48.5 | 98.3 | 78 | 87.6 | 93.7 | 95.8 | 49.1 | 95.5 | 25.2 | 98.6 | 35.7 | 45.5 | 94.8 | 77.3 | 97.9 | 74.2 | 94.8 | 49.4 | inhibition at 4 µg/mL [21]: 71.8%; inhibition at 8 µg/mL [22]: 97%; inhibition at 8 µg/mL [23]: 97.8%; inhibition at 4 µg/mL [24]: 92.4%
6 | CC(C)c1cc2c(c(O)c1O)[C@@]13CCCC(C)(C)[C@@H]1[C@@H](O)[C@@H]2OC3=O [ISOROSMANOL] | 48.5 | 17 | 43.9 | 63.9 | 52.1 | 42.9 | 56.2 | 53 | 16.2 | 0 | 2.5 | 0 | 13.2 | 56.4 | 66.3 | 25.2 | 80.5 | 42.2 | 75.4 | 62.8 | inhibition at 4 µg/mL [21]: 0%; inhibition at 8 µg/mL [22]: 14.7%; inhibition at 8 µg/mL [23]: 66.9%; inhibition at 4 µg/mL [24]: 25%
7 | CC(C)c1cc2c(c(O)c1O)[C@@]13CCCC(C)(C)[C@@H]1[C@H](OC3=O)[C@H]2O [ROSMANOL] | 20.3 | 70.6 | 55.5 | 68.7 | 0 | 0 | 79.9 | 0 | 24.9 | 3.7 | 6.9 | 63.8 | 44.2 | 45.6 | 0 | 39.8 | 73.1 | 0 | 68.4 | 46.6 | inhibition at 4 µg/mL [21]: 45.1%; inhibition at 8 µg/mL [22]: 9.5%; inhibition at 8 µg/mL [23]: 26.2%; inhibition at 4 µg/mL [24]: 47.3%
8 | CC(C)c1cc2c(c(O)c1O)[C@@]1(C(=O)O)CCCC(C)(C)[C@@H]1CC2 [CARNOSIC ACID] | 57 | 35.5 | 91.2 | 0 | 10.7 | 60 | 83.7 | 78.5 | 33.3 | 27.7 | 36.3 | 33.5 | 18.9 | 41.3 | 43.6 | 55.6 | 83 | 2.7 | 51.7 | 47.3 | inhibition at 4 µg/mL [21]: 64.1%; inhibition at 8 µg/mL [22]: 42.7%; inhibition at 8 µg/mL [23]: 25.8%; inhibition at 4 µg/mL [24]: 0%

From ChEMBL document CHEMBL4813932, “Terpenoid Constituents of Perovskia artemisioides Aerial Parts with Inhibitory Effects on Bacterial Biofilm Growth” (2021)
